Results from patent US20060276498A1 (Wyeth, priority 2005, published 2006).

Target: T1, human Cot/Tpl2 kinase (Homo sapiens, UniProt P41279)
T1 construct: human Cot/Tpl2 kinase construct encoding residues 30-398; 6His (N); made in house; host or cells: Sf9 insect cells (baculovirus system, BD Biosciences)
Assay: Tpl2/Cot kinase assay, GST-MEK1 phosphorylation detected by ELISA (DELFIA Eu)
Type: biochemical
Method: Sf9 cells expressing the kinase were lysed in 50 mM NaPhosphate pH=8; 300 mM NaCl; 5 mM imidazole; 0.1 mM EGTA; 25 mM beta-glycerophosphate; 1% TX-100, 1% glycerol; 6 mM beta-mercaptoethanol and protease inhibitors. The lysate was clarified by centrifugation and was loaded onto a Ni-Sepharose column. The column was washed with 50 mM NaPhosphate pH=8; 300 mM NaCl; 15 mM imidazole; 1% glycerol; and 6 mM beta-mercaptoethanol. His-Tpl2 was eluted with 50 mM NaPhosphate pH=8; 300 mM NaCl; 250 mM imidazole; 1% glycerol; and 6 mM beta-mercaptoethanol. The eluted protein was further purified by size exclusion chromatography. Fractions corresponding to monomeric Tpl2 were then used in the assay.
Tpl2/Cot activity was directly assayed using GST-MEK1 as a substrate. GST-MEK1 phosphorylation on serine residues 217 and 221 was detected by ELISA. 0.4 nM Tpl2 was incubated with 35 nM GST-MEK1 in a kinase reaction buffer containing 20 mM MOPS pH=7.2; 50 uM ATP; 20 mM MgCl2; 1 mM DTT; 25 mM β-glycerophosphate; 5 mM EGTA; and 1 mM sodium orthovanadate for 1 h at 30° C. The compounds of the inventions solubilized in 100% DMSO were pre-diluted in assay buffer so that the final concentration of DMSO in the reaction was 1%. The kinase reaction was carried out in 100 ul volume on 96 well plates. The kinase reaction was then stopped with the addition of 100 mM EDTA. […] After a 1 hour incubation at room temperature, the detection plate was washed 4 times with TBST (TBS+0.05% Tween 20) and then incubated for another hour at room temperature with anti phospho-MEK1 antibody (Cell Signaling) 1:1000 in 10 mM MOPS 7.5; 150 mM NaCl; 0.05% Tween 20; 0.1% Gelatin; 0.02% NaN3; and 1% BSA. The detection plate was washed again and incubated for 30 min with DELFIA Europium (Eu) labeled goat anti-rabbit IgG (Perkin-Elmer), 1:4000 in the same buffer used for the primary incubation. After a final wash, Eu detection solution was added to each well and the Eu signal was measured in a Wallac Victor^2 Multilabel Counter. IC50 calculations were preformed using the XLfit software package (IDBS, Guildford, UK).

[1] = Table 1, 0.4 nM Tpl2, 35 nM GST-MEK1, 50 uM ATP, 1 h at 30° C.
[2] = Table 2, additional representative compounds

T1 sequence (P41279 30-398): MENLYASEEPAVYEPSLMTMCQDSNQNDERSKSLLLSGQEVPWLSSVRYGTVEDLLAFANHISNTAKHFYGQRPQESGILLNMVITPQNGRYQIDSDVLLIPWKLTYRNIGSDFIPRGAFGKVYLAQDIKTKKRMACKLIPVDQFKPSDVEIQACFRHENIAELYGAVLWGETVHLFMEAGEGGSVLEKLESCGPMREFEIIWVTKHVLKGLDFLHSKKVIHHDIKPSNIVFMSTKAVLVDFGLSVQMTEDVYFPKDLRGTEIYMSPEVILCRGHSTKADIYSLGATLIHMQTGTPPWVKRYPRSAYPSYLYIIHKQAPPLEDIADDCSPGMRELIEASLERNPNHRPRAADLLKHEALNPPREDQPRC

Structure (SMILES)	IC50 [1] [µM]	IC50 [2] [µM]
N#Cc1cnc2cnc(NCCN3CCOCC3)cc2c1Nc1cccc(N)c1 [Example 82, 4-(3-aminophenylamino)-6-(2-morpholinoethylamino)-1,7-naphthyridine-3-carbonitrile]	> 10	
N#Cc1cnc2cnc(NCCN3CCOCC3)cc2c1Nc1cccc([N+](=O)[O-])c1 [Example 81, 6-(2-morpholinoethylamino)-4-(3-nitrophenylamino)-1,7-naphthyridine-3-carbonitrile]	0.27	
N#Cc1cnc2cnc(NCCN3CCOCC3)cc2c1Nc1ccc(Sc2ccccc2)cc1 [Example 11, 6-(2-morpholinoethylamino)-4-(4-(phenylthio)phenylamino)-1,7-naphthyridine-3-carbonitrile]	0.006	
COC(=O)c1ccc(Nc2c(C#N)cnc3cnc(NCc4cccnc4)cc23)cc1 [Example 30, Methyl 4-(3-cyano-6-(pyridin-3-ylmethylamino)-1,7-naphthyridin-4-ylamino)benzoate]	> 40	
COC(=O)c1cccc(Nc2c(C#N)cnc3cnc(NCCN4CCOCC4)cc23)c1 [Example 83, Methyl 3-(3-cyano-6-(2-morpholinoethylamino)-1,7-naphthyridin-4-ylamino)benzoate]	> 10	
N#Cc1cnc2cnc(NCCN3CCOCC3)cc2c1Nc1ccc(C(=O)c2ccccc2)cc1 [Example 27, 4-(4-benzoylphenylamino)-6-(2-morpholinoethylamino)-1,7-naphthyridine-3-carbonitrile]	4.6	
N#Cc1cnc2cnc(NCc3cccnc3)cc2c1Nc1ccc(Cl)c(Cl)c1 [Example 63, 4-[(3,4-dichlorophenyl)amino]-6-[(pyridin-3-ylmethyl)amino]-1,7-naphthyridine-3-carbonitrile]	> 40	
CC#Cc1cccc(Nc2c(C#N)cnc3cnc(NCCN4CCOCC4)cc23)c1 [Example 79, 6-(2-morpholinoethylamino)-4-(3-(prop-1-ynyl)phenylamino)-1,7-naphthyridine-3-carbonitrile]	> 10	
N#Cc1cnc2cnc(NCc3cccnc3)cc2c1Nc1cccc(Oc2ccccc2)c1 [Example 15, 4-(3-phenoxyphenylamino)-6-(pyridin-3-ylmethylamino)-1,7-naphthyridine-3-carbonitrile]	> 40	
N#Cc1cnc2cnc(N)cc2c1Nc1ccc(F)c(Cl)c1 [Example 35, 6-amino-4-[(3-chloro-4-fluorophenyl)amino]-1,7-naphthyridine-3-carbonitrile]	5	
N#Cc1cnc2cnc(NCCN3CCOCC3)cc2c1Nc1ccc2[nH]ccc2c1 [Example 44, 4-(1H-indol-5-ylamino)-6-[(2-morpholin-4-ylethyl)amino]-1,7-naphthyridine-3-carbonitrile]	> 40	
N#Cc1cnc2cnc(NCc3cccnc3)cc2c1Nc1ccc(Nc2ccccc2)cc1 [Example 18, 4-(4-(phenylamino)phenylamino)-6-(pyridin-3-ylmethylamino)-1,7-naphthyridine-3-carbonitrile]	> 10	
N#Cc1cnc2cnc(NCCN3CCOCC3)cc2c1Nc1cccc(C(N)=O)c1 [Example 86, 3-(3-cyano-6-(2-morpholinoethylamino)-1,7-naphthyridin-4-ylamino)benzamide]	> 10	
N#Cc1cnc2cnc(NCc3cccnc3)cc2c1Nc1cccc(Cl)c1 [Example 12, 4-(3-chlorophenylamino)-6-(pyridin-3-ylmethylamino)-1,7-naphthyridine-3-carbonitrile]	0.065	
N#Cc1cnc2cnc(NCCN3CCOCC3)cc2c1Nc1cccc(Cl)c1 [Example 3, 4-(3-chlorophenylamino)-6-(2-morpholinoethylamino)-1,7-naphthyridine-3-carbonitrile]	1.16	
N#Cc1cnc2cnc(NCCN3CCOCC3)cc2c1Nc1ccc(-c2ccccc2)cc1 [Example 87, 4-(1,1′-biphenyl-4-ylamino)-6-[(2-morpholin-4-ylethyl)amino]-1,7-naphthyridine-3-carbonitrile]	> 40	
N#Cc1cnc2cnc(NCCN3CCOCC3)cc2c1Nc1ccc([N+](=O)[O-])cc1 [Example 88, 6-(2-morpholinoethylamino)-4-(4-nitrophenylamino)-1,7-naphthyridine-3-carbonitrile]	7	
Cc1ccc(Nc2c(C#N)cnc3cnc(NCc4cccnc4)cc23)cc1Br [Example 66, 4-[(3-bromo-4-methylphenyl)amino]-6-[(pyridine-3-ylmethyl)amino]-1,7-naphthyridine-3-carbonitrile]	> 40	

Next, values leading:

IC50 [1] [µM]	IC50 [2] [µM]	Structure (SMILES)
	> 40	N#Cc1cnc2cnc(NCc3c(Cl)cccc3Cl)cc2c1NCc1c(Cl)cccc1Cl [Example 127, 4,6-bis[(2,6-dichlorobenzyl)amino]-1,7-naphthyridine-3-carbonitrile]
	0.23	N#Cc1cnc2cnc(NCCc3ccc(S(N)(=O)=O)cc3)cc2c1Nc1ccc(F)c(Cl)c1 [Example 120, 4-(2-(4-(3-chloro-4-fluorophenylamino)-3-cyano-1,7-naphthyridin-6-ylamino)ethyl)benzenesulfonamide]
	0.1	CCC(C)(C)Nc1c(C#N)cnc2cnc(NCc3cccnc3)cc12 [Example 135, 4-[(1,1-dimethylpropyl)amino]-6-[(pyridin-3-ylmethyl)amino]-1,7-naphthyridine-3-carbonitrile]
	> 40	CC(Nc1cc2c(Nc3ccc(F)c(Cl)c3)c(C#N)cnc2cn1)c1ccccc1 (centres unmarked) [Example 115, 4-[(3-chloro-4-fluorophenyl)amino]-6-[(1-phenylethyl)amino]-1,7-naphthyridine-3-carbonitrile]
	> 40	N#Cc1cnc2cnc(NCc3cccnc3)cc2c1NCc1cccnc1 [Example 145, 4,6-bis(pyridin-3-ylmethylamino)-1,7-naphthyridine-3-carbonitrile]
	> 40	N#Cc1cnc2cnc(F)cc2c1Nc1ccc(OC(F)(F)F)cc1 [Example 128, 6-fluoro-4-{[4-(trifluoromethoxy)phenyl]amino}-1,7-naphthyridine-3-carbonitrile]
	> 40	C[C@@H](Nc1cc2c(N(C)C3CCCCCC3)c(C#N)cnc2cn1)c1ccccc1 [Example 137, 4-[cycloheptyl(methyl)amino]-6-{[(1R)-1-phenylethyl]amino}-1,7-naphthyridine-3-carbonitrile]
	0.13	N#Cc1cnc2cnc(NCc3ccccn3)cc2c1Nc1ccc(F)c(Cl)c1 [Example 123, 4-(3-chloro-4-fluorophenylamino)-6-(pyridin-2-ylmethylamino)-1,7-naphthyridine-3-carbonitrile]
	> 40	C#CC(C)(C)Nc1c(C#N)cnc2cnc(NCc3cccnc3)cc12 [Example 138, 4-[(1,1-dimethylprop-2-ynyl)amino]-6-[(pyridin-3-ylmethyl)amino]-1,7-3-carbonitrile]
	4.6	CC(C)(C)Nc1c(C#N)cnc2cnc(NCc3ccc(S(C)(=O)=O)cc3)cc12 [Example 130, 4-(tert-butylamino)-6-{[4-(methylsulfonyl)benzyl]amino}-1,7-naphthyridine-3-carbonitrile]
	16.9	CS(=O)(=O)c1ccc(CNc2cc3c(NCc4ccc(S(C)(=O)=O)cc4)c(C#N)cnc3cn2)cc1 [Example 132, 4,6-bis{[4-(methylsulfonyl)benzyl]amino}-1,7-naphthyridine-3-carbonitrile]
